Structures are written as SMILES. Some results are limits rather than exact numbers.

Here are results for 5 molecules from patent publication US11883402B2, “Crystalline forms of a quinazoline compound and its hydrochloride salts” (Hanmi Pharmaceutical Co., Ltd., priority 2018, dated 2024).

What all share (format): physicochemical
Data set [1] is described as follows: Dynamic vapor sorption (DVS) hygroscopicity. The settings on record: for Hygroscopic degree (DVS): 25° C. The method, then: Dynamic Vapor Sorption (DVS) analysis was conducted on the DVS advantage (Surface measurement system, United Kingdom) analyzer at 25° C. and relative humidity of 0-90%.
10 mg of sample was placed in the wire mesh steam sorption balance pan and attached to the DVS-advantage dynamic vapor adsorption balance by the Surface Measurement Systems. […] After the completion of the sorption cycle, the sample was dried using the same procedure, during which the relative humidity was returned to a relative humidity […] all the time. The change in weight during the sorption/desorption cycle (repetition of 3 times) was recorded to determine the hygroscopicity of the sample.

Data set [2] is described as follows: Behaviour under long-term, accelerated and harsh storage conditions (moisture absorption, stability of form).
Data set [3] is described as follows: Comparative test of solubility of amorphous form and crystalline polymorphs of the hydrochloride salt (Test Example 1). The following applies: 25° C., loading of 1.0 mg/mL, LOD 0.1 μg/mL, based on compound of formula (1), listed as HCl cryst. hydrate. The method, then: To compare the solubility of amorphous hydrochloride salt form and crystalline hydrochloride salt polymorphs, each of the polymorphs and amorphous form of the hydrochloride salt of the compound of chemical formula (1) prepared in Examples 4 to 6 was used to prepare samples under the following conditions according to non-ionized water and acidity (pH). Thereafter, each solution was analyzed by high performance liquid chromatography (HPLC) according to the measurement conditions of the content of the compound of chemical formula (1) to measure the dissolved amount (LOD: 0.1 μg/mL) based on the compound of chemical formula (1).
Specifically, 5 mg of each polymorph was added to 5 ml of water and mixed using a Voltamixer at 20-25° C. Thereafter, the filtrate obtained by filtrating using GH Polypro membrane Acrodisc, PALL (pore size 0.2 μm) was diluted with a dilution solvent for high performance liquid chromatography (HPLC) at a ratio of 1/100, to obtain the samples.

The nature of data set [4]: Comparative test of stability (HPLC purity on storage) of amorphous form and crystalline polymorphs of the hydrochloride salt (Test Example 2). The settings on record: listed as HCl amorphous. The method, then: High performance liquid chromatography (HPLC) was conducted on the Agilent 1100/1200 series HPLC Systems (Agilent, USA) analyzer for the purpose of purity and content analysis including stability test and the like. The analysis conditions of the HPLC are as follows.
To compare the stability of amorphous hydrochloride salt form and crystalline hydrochloride salt polymorphs, each of samples of the polymorphs and amorphous form of the hydrochloride salt of the compound of chemical formula (1) prepared in Examples 4 to 6 was left for 4 weeks under long term conditions (e.g., temperature of 25±2° C. and relative humidity of 60±5%) and accelerated conditions (e.g., temperature of 40° C. and relative humidity of 75%). Each sample was analyzed by high performance liquid chromatography (HPLC) according to the purity measurement conditions of the compound of chemical formula (1).

Turning to `C=CC(=O)N1CCC(Oc2cc3c(Nc4ccc(Cl)c(Cl)c4F)ncnc3cc2OC)CC1` [Example 2, 1-(4-(4-(3,4-dichloro-2-fluorophenylamino)-7-methoxyquinazolin-6-yloxy)piperidin-1-yl)prop-2-en-1-one], the figures for the “Hygroscopic degree (DVS)” value in data set [1] (relative humidity range of 10%-50%) and in data set [1] (relative humidity range of 50-90%) were 0.3-0.5% and “about 3%”, respectively.
Consider `C=CC(=O)N1CCC(Oc2cc3c(Nc4ccc(Cl)c(Cl)c4F)ncnc3cc2OC)CC1` [Example 3, 1-(4-(4-(3,4-dichloro-2-fluorophenylamino)-7-methoxyquinazolin-6-yloxy)piperidin-1-yl)prop-2-en-1-one], for which the “Stability under storage conditions (in words)” value in data set [2] (long-term (25° C., 60% RH), accelerated (40° C., 75% RH) and harsh (60° C.) conditions) is “sufficiently stable”.
Regarding `C=CC(=O)N1CCC(Oc2cc3c(Nc4ccc(Cl)c(Cl)c4F)ncnc3cc2OC)CC1` [Example 4, 1-(4-(4-(3,4-dichloro-2-fluorophenylamino)-7-methoxyquinazolin-6-yloxy)piperidin-1-yl)prop-2-en-1-one], in data set [3], the “Solubility, Water” value is on record as “<LOD”.
Consider `C=CC(=O)N1CCC(Oc2cc3c(Nc4ccc(Cl)c(Cl)c4F)ncnc3cc2OC)CC1` [Example 5, 1-(4-(4-(3,4-dichloro-2-fluorophenylamino)-7-methoxyquinazolin-6-yloxy)piperidin-1-yl)prop-2-en-1-one], for which the “Moisture absorption on storage (in words)” value in data set [2] (long-term (25° C., 60% RH) and accelerated (40° C., 75% RH) conditions) was “did not absorb moisture”.
With `C=CC(=O)N1CCC(Oc2cc3c(Nc4ccc(Cl)c(Cl)c4F)ncnc3cc2OC)CC1` [Example 6, 1-(4-(4-(3,4-dichloro-2-fluorophenylamino)-7-methoxyquinazolin-6-yloxy)piperidin-1-yl)prop-2-en-1-one], in data set [1] (relative humidity range of 10-90%), the “Hygroscopic degree (DVS), in words” value is on record as “very high hygroscopic degree”. In data set [4] (25 ± 2° C., 60 ± 5% RH), the “Purity (HPLC, %) 3 days” value is 98.0%; the “Purity (HPLC, %) Start” value was determined as 98.0%; the “Purity (HPLC, %) Week 1” value is on record as 98.0%; the “Purity (HPLC, %) Week 2” value was 97.9%. Moreover, in data set [4] (25 ± 2° C., 60 ± 5% RH), the “Purity (HPLC, %) Week 4” value is listed as 97.9%. Further, in data set [4] (40 ± 2° C., 75 ± 5% RH), the “Purity (HPLC, %) 3 days” value came out at 97.9%; the “Purity (HPLC, %) Start” value stood at 98.0%; the “Purity (HPLC, %) Week 1” value came out at 97.9%; the “Purity (HPLC, %) Week 2” value is 97.8%. In data set [4] (40 ± 2° C., 75 ± 5% RH), the “Purity (HPLC, %) Week 4” value was determined as 97.6%. Also, in data set [2] (25° C., 60% relative humidity and 40° C., 75% relative humidity), the “Moisture absorption on storage” value is listed as 7-9%.
